Assays:
Hepatitis C virus [1] = assay: Antiviral activity against Hepatitis C virus type 2a expressing JFH1 assessed as inhibition of infection in human Huh7.5.1 cells after 3 days by luciferase reporter gene assay; type: functional, organism-based, Hepacivirus hominis; settings: genotype 2a, Huh-7, 72 h
CYP3A4 = CYP3A4 (Homo sapiens, UniProt P08684); assay: Inhibition of CYP3A4 (unknown origin) at 10 uM relative to control; type: ADME
CYP2D6 = CYP2D6 (Homo sapiens, UniProt P10635); assay: Inhibition of CYP2D6 (unknown origin) at 10 uM relative to control; type: ADME
CYP2D6, sequence (P10635 whole entry): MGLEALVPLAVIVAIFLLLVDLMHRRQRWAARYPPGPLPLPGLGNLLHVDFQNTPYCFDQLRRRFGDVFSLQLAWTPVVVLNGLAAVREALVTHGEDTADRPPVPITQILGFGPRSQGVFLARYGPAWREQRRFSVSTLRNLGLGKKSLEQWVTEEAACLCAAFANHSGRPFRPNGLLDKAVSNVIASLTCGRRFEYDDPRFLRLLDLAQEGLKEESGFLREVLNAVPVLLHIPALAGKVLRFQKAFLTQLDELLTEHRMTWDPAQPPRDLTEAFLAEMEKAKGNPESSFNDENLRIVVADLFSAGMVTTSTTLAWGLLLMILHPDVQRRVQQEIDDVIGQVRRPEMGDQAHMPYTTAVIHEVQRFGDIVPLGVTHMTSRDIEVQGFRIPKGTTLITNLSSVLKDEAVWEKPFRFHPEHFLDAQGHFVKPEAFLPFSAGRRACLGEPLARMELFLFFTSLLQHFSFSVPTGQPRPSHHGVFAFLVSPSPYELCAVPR

CYP2C9 = CYP2C9 (Homo sapiens, UniProt P11712); assay: Inhibition of CYP2C9 (unknown origin) at 10 uM relative to control; type: ADME
CYP2C9, sequence (P11712 whole entry): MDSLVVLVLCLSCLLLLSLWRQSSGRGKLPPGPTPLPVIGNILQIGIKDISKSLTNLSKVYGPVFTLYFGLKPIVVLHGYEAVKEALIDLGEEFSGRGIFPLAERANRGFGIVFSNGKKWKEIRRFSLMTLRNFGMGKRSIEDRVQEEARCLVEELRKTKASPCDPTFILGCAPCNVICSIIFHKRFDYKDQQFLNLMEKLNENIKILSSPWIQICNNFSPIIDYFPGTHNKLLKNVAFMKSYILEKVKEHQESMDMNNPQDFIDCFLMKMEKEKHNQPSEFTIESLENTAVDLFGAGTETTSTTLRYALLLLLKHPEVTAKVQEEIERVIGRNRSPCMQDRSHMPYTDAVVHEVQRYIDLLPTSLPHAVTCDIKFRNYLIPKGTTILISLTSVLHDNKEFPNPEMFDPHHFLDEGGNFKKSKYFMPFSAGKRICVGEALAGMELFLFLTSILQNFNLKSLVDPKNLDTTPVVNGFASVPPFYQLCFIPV

CYP1A2 = molecular target: T1, CYP1A2 (Homo sapiens, UniProt P05177); assay: Inhibition of CYP1A2 (unknown origin) at 10 uM relative to control; type: ADME
T1 sequence (P05177 whole entry): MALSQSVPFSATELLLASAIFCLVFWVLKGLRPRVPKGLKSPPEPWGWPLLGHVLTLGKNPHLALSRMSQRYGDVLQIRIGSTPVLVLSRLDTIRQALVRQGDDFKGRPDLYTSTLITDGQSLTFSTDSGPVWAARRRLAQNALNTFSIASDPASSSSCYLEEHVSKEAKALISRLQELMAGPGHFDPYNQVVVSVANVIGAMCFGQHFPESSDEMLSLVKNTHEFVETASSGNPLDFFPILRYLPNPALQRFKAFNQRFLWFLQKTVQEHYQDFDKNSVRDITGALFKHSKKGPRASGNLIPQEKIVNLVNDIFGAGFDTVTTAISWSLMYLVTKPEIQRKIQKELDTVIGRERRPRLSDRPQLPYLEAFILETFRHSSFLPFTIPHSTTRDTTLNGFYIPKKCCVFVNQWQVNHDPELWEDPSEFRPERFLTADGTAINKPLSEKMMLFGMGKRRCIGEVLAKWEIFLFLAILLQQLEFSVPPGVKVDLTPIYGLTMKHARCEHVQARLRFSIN

[2] = Metabolic stability in rat plasma assessed as compound remaining at 2 uM after 4 hrs; type: ADME, cell-free; settings: read-out: Stability
[3] = Metabolic stability in rat plasma assessed as compound remaining at 2 uM after 1 hr; type: ADME, cell-free; settings: read-out: Stability
[4] = Metabolic stability in rat plasma assessed as compound remaining at 2 uM after 0.5 hrs; type: ADME, cell-free; settings: read-out: Stability
[5] = molecular target: Voltage-gated inwardly rectifying potassium channel KCNH2 (Homo sapiens, UniProt Q12809); assay: Binding affinity to human ERG by fluorescence polarization assay
Voltage-gated inwardly rectifying potassium channel KCNH2, sequence (Q12809 whole entry): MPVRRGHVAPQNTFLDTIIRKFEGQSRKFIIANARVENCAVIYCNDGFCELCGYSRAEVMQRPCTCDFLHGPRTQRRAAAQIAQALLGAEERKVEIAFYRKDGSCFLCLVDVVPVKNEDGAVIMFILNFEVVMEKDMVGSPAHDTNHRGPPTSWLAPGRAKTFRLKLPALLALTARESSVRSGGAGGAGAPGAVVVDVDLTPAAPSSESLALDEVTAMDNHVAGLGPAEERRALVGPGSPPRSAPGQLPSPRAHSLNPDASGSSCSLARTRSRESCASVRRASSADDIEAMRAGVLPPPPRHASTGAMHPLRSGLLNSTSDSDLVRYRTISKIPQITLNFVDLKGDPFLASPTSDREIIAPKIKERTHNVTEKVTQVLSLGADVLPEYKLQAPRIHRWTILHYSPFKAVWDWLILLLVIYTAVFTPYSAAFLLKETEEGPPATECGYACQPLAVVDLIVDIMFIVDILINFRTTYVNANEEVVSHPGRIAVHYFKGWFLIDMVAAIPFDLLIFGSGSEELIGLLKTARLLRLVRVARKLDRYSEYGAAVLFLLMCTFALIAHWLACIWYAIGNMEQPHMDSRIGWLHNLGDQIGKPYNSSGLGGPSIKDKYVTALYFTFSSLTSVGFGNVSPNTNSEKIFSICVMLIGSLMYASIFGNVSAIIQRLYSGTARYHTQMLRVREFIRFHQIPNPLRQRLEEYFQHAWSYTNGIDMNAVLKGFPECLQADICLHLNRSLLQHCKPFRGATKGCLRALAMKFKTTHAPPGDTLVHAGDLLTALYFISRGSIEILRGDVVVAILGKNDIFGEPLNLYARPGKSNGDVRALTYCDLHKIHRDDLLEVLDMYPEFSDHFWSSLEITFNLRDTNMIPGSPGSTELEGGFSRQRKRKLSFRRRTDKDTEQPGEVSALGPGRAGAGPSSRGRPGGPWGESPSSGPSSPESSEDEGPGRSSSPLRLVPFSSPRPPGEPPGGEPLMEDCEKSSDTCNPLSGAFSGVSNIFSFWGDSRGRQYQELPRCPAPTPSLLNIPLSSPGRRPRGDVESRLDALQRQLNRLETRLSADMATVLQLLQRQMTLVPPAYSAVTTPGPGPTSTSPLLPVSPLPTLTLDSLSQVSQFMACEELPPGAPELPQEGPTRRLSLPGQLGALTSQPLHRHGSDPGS

[6] = Selectivity index, ratio of cytotoxicity for human Huh7.5.1 cells to EC50 for Hepatitis C virus genotype 1b; type: toxicity, cell-based, Huh-7; settings: read-out: Selectivity Index
Hepatitis C virus [7] = assay: Antiviral activity against Hepatitis C virus genotype 1b expressed in human Huh7.5.1 cells coexpressing NKR2AN after 3 days by luciferase reporter gene assay; type: functional, organism-based, Hepacivirus hominis; settings: Huh-7, 72 h
[8] = Selectivity index, ratio of cytotoxicity for human Huh7.5.1 cells to EC50 for Hepatitis C virus type 2a; type: toxicity, cell-based, Huh-7; settings: read-out: Selectivity Index
[9] = Cytotoxicity against human Huh7.5.1 cells; type: cell-based; settings: huh-7

CYP3A4, sequence (P08684 whole entry): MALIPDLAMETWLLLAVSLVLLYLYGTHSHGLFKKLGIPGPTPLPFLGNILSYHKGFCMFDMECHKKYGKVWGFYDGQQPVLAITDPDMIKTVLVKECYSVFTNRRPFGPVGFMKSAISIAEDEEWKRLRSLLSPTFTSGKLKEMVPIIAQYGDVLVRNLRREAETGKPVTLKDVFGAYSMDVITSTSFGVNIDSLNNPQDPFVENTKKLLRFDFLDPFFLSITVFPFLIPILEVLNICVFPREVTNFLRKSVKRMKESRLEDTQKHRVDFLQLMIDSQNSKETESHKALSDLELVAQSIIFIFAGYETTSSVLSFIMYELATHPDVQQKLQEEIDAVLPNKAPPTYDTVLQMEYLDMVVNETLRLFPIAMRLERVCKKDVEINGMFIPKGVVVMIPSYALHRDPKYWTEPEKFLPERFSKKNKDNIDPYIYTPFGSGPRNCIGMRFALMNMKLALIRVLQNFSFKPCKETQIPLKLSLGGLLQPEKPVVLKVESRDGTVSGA

COC(=O)N[C@@H](C(=O)N1CCC[C@H]1C(=O)Nc1ccc(-c2ccc(NC(=O)[C@@H]3CCCN3C(=O)[C@H](NC(=O)OC)C(C)C)cc2)cc1)C(C)C
EC50 (Hepatitis C virus [1]): 15 nM

COC(=O)N[C@H](C(=O)N1CCC[C@H]1C(=O)Nc1ccc(-c2ccc(NC(=O)[C@@H]3CCCN3C(=O)[C@@H](NC(=O)OC)C(C)C)cc2)cc1)C(C)C
EC50 (Hepatitis C virus [1]): 120 nM

COC(=O)N[C@@H](C(=O)N1CCC[C@H]1C(=O)Nc1ccc(-c2ccc(NC(=O)[C@@H]3CCCN3C(=O)[C@H](NC(=O)OC)c3ccccc3)cc2)cc1)c1ccccc1
inhibition at 10 µM (CYP3A4): 23.9% | inhibition at 10 µM (CYP2D6): 0% | inhibition at 10 µM (CYP2C9): 0% | inhibition at 10 µM (CYP1A2): 18.1% | remaining at 4 h, 2 µM [2]: > 99% | remaining at 1 h, 2 µM [3]: > 99% | remaining at 0.5 h, 2 µM [4]: > 99% | EC50 [5]: 9800 nM | selectivity ratio [6]: > 893000 | EC50 (Hepatitis C virus [7]): 0.028 nM | selectivity ratio [8]: > 96000 | Activity [9]: > 25 µM | EC50 (Hepatitis C virus [1]): 0.26 nM

CN(C)[C@@H](C(=O)N1CCC[C@H]1C(=O)Nc1ccc(-c2ccc(NC(=O)[C@@H]3CCCN3C(=O)[C@@H](c3ccccc3)N(C)C)cc2)cc1)c1ccccc1
selectivity ratio [6]: > 58000 | EC50 (Hepatitis C virus [7]): 0.43 nM | selectivity ratio [8]: > 11000 | Activity [9]: > 25 µM | EC50 (Hepatitis C virus [1]): 2.3 nM

CCN(CC)[C@@H](C(=O)N1CCC[C@H]1C(=O)Nc1ccc(-c2ccc(NC(=O)[C@@H]3CCCN3C(=O)[C@@H](c3ccccc3)N(CC)CC)cc2)cc1)c1ccccc1
selectivity ratio [6]: > 93000 | EC50 (Hepatitis C virus [7]): 0.27 nM | selectivity ratio [8]: > 11000 | Activity [9]: > 25 µM | EC50 (Hepatitis C virus [1]): 2.2 nM

COC(=O)N[C@@H](C)C(=O)N1CCC[C@H]1C(=O)Nc1ccc(-c2ccc(NC(=O)[C@@H]3CCCN3C(=O)[C@H](C)NC(=O)OC)cc2)cc1
EC50 (Hepatitis C virus [1]): > 1000 nM

COC(=O)N[C@H](C(=O)N1CCC[C@H]1C(=O)Nc1ccc(-c2ccc(NC(=O)[C@@H]3CCCN3C(=O)[C@@H](NC(=O)OC)C(C)(C)C)cc2)cc1)C(C)(C)C
EC50 (Hepatitis C virus [1]): 24 nM

O=C(Nc1ccc(-c2ccc(NC(=O)[C@@H]3CCCN3C(=O)[C@H]3CCCO3)cc2)cc1)[C@@H]1CCCN1C(=O)[C@H]1CCCO1
EC50 (Hepatitis C virus [1]): 400 nM

CC(=O)N1CCN(c2ccc(OCC3COC(Cn4ccnc4)(c4ccc(Cl)cc4Cl)O3)cc2)CC1 (racemic) [KETOCONAZOLE]
inhibition at 10 µM (CYP3A4): 95.3%

O=c1cc(-c2ccccc2)oc2c1ccc1ccccc12 [ALPHA-NAPHTHOFLAVONE]
inhibition at 10 µM (CYP1A2): 98.6%

C=C[C@H]1C[N@@]2CC[C@H]1C[C@@H]2[C@@H](O)c1ccnc2ccc(OC)cc12 [QUINIDINE]
inhibition at 10 µM (CYP2D6): 95.1%

Nc1ccc(S(=O)(=O)Nc2ccnn2-c2ccccc2)cc1 [SULFAPHENAZOLE]
inhibition at 10 µM (CYP2C9): 75.8%
